Results published in patent US20260374752A1, “COMPOUNDS, COMPOSITIONS, AND METHODS” (Tenvie Therapeutics, Inc., priority 2023, published 2026).
Like-named read-outs stand apart in the source and are kept apart here.

Biological target: T1, (Homo sapiens, UniProt Q96P20)
T1 construct: IL-1β ELISA of supernatant
Experiment: IL-1β secretion assay in THP-1 cells (PMA differentiated, LPS and nigericin stimulated; ELISA)
Type: cell-based
Description: Biochemical Assay of the Compounds
Procedure for Culturing THP-1 Cells
Compounds as provided herein were tested in the following assay. Cell culture medium employed contained RPMI 1640 medium (89%), FBS (10%), Pen/Strep (1%), and 2-mercaptoethanol (0.05 mM). Freezing medium was made up of 90% FBS and 10% DMSO. THP-1 cells were removed from the liquid nitrogen and placed into a 37 °C water bath to thaw, until signs of ice dissipated. The cells were then added to 9 mL of warm cell culture medium and centrifuged for 5 minutes at 1000 rpm. The supernatant was discarded, and the cells were resuspended in new cell culture medium. THP-1 cells were then split and cultured in the cell culture medium, being passaged every 2-3 days with the cell density will be maintained between 5×10^5 and 1.5×10^6 viable cells/mL.
To freeze, cells were resuspended with fresh freezing medium, adjusting the cell density to 5×10^6 cells/mL. The cell suspension was partitioned into 1 mL aliquots per vial, and the vials were transferred to a −80 °C freezer. After one day at −80 °C, the cell vials were transferred to liquid nitrogen freezer for storage.
Procedure for IL-Iβ Secretion Assay in 384-Well Plates
PMA was dissolved in DMSO to make a stock solution at 5 mg/ml and stored in 10 μl aliquots at −20 °C for single use. PMA is added to normal growth medium. LPS was diluted with 1 mL of water solution to provide a 1 mg/mL stock solution and stored in 15 μL aliquots at −20 °C for single use. Nigericin is diluted in ice cold 100% ethanol to 5 mg/ml (6.7 mM) and stored in 75 μL aliquots at −20 °C for single use. Serum-free media contains RPMI 1640 medium (99%), Pen/Strep (1%), and 2-mercaptoethanol (0.05 mM). The two control conditions used to qualify and normalize test compound dose-response curves were as follows: High Control=25 ng/mL LPS, 5 μM Nigericin, 0.5% DMSO, Low Control=25 ng/ml, LPS, 0.5% DMSO.
Day 1: Differentiation with PMA
THP-1 cells were diluted to provide a suspension at a concentration of 1.0×10^6 cells/mL with the total volume of suspension required to enable the desired number of assay plates. The growth media was supplemented with PMA (5 ng/mL final concentration) and the cells were incubated at 37 °C under a humidified atmosphere of 5% CO2 for 40 h.
Day 3: Plating with Sequential LPS and Nigericin Stimulation
All media was carefully aspirated from each culture flask. The cells were washed carefully with 1× DPBS. The cells were then briefly digested with trypsin LE for 5 minutes at 23 °C and immediately resuspended in cell growth media. After resuspension, the cells were centrifuged at 1000 rpm for 3 minutes and the supernatant was discarded. The cells were resuspended in DPBS and once again centrifuged at 1000 rpm for 5 minutes. The supernatant was discarded and the cell pellet was resuspended in serum-free media supplemented with LPS (25 ng/mL final concentration) to enable the distribution of 30K THP-1 cells within 45 μL of media into each well of 384-well PDL-coated plates. The 384-well plates were then incubated at 37 °C under a humidified atmosphere of 5% CO2 for 2 h. Following this period, test compounds were dispensed by Tecan across the desired concentration range with all wells normalized to a final 0.5% DMSO concentration. The plates were then then incubated at 37 °C under a humidified atmosphere of 5% CO2 for 1 h. Following this period, 5 μL of the […] nigericin stock solution was added to each of the appropriate wells and plates were centrifuged at 1000 rpm for 30 seconds. The plates were the immediately reintroduced to the incubator at 37 °C under a humidified atmosphere of 5% CO2 for 2 h. After this time, 35 μL/well of supernatant was collected and transferred into v-bottom plate and centrifuged at 1000 rpm for 1 minute. These supernatant aliquots were analyzed using an IL-Iβ detection kit as described below. If needed, the test samples could be snap frozen and stored at −80 °C until analyzed. […]

[1] = inhibition of IL-1β secretion, 25 ng/mL LPS, 5 μM Nigericin, 0.5% DMSO, read-out: Activity (IC50)
[2] = inhibition of IL-1β secretion, 25 ng/mL LPS, 5 μM Nigericin, 0.5% DMSO, read-out: Activity (IC50 class)

T1 sequence (Q96P20 whole entry): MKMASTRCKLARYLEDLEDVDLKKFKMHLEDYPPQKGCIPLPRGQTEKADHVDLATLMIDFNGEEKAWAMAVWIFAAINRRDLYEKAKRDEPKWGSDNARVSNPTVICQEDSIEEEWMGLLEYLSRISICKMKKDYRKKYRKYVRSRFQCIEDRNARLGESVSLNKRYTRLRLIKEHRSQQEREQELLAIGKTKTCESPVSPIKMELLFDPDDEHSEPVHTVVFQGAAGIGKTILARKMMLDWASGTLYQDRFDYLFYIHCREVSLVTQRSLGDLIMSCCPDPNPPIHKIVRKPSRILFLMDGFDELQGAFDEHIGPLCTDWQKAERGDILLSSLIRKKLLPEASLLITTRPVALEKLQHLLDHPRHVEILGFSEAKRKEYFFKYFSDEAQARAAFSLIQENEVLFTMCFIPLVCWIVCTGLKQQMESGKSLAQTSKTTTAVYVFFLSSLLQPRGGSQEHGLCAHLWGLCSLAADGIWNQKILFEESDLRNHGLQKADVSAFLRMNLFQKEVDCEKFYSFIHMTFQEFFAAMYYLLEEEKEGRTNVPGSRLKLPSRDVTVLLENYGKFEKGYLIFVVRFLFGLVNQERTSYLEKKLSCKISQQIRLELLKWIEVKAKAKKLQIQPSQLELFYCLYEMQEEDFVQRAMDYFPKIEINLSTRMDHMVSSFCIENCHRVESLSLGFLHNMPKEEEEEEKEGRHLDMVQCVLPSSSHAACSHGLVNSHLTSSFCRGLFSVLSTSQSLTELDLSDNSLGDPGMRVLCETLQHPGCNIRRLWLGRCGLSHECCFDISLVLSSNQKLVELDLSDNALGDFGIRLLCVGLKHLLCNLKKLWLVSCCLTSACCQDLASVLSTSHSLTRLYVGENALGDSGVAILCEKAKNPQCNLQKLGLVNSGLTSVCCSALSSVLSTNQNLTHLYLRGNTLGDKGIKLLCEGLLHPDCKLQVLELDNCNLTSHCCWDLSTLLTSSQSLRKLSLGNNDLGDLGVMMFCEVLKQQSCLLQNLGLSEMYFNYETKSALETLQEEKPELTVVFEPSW

IC50 (read-out: Activity (IC50), inhibition of IL-1β secretion, 25 ng/mL LPS, 5 μM Nigericin, 0.5% DMSO) [nM]	IC50 (read-out: Activity (IC50 class), inhibition of IL-1β secretion, 25 ng/mL LPS, 5 μM Nigericin, 0.5% DMSO) [nM]	IC50 [1] [nM]	IC50 [2] [nM]	Compound
700	< 1000	–	–	O=C(CN1C(=O)c2ccc(Br)cc2[C@@H]2CCC[C@@H]21)Nc1ncc(F)cn1 (relative stereo) [compound 1, 2-(cis-8-bromo-5-oxo-2,3,3a,9b-tetrahydro-1H-cyclopenta[c]isoquinolin-4-yl)-N-(5-fluoropyrimidin-2-yl) acetamide]
–	–	240	< 1000	O=C(CN1C(=O)c2ccc(Br)cc2[C@@H]2CC[C@@H]21)Nc1ncc(F)cn1 (relative stereo) [compound 4, 2-(cis-7-bromo-4-oxo-1,2,2a,8b-tetrahydrocyclobuta[c]isoquinolin-3-yl)-N-(5-fluoropyrimidin-2-yl) acetamide]
–	–	800	< 1000	O=C(CN1C(=O)c2ccc(Br)cc2[C@@H]2C[C@@H]21)Nc1ncc(F)cn1 (relative stereo) [compound 5, 2-(cis-6-bromo-3-oxo-1a,7b-dihydro-1H-cyclopropa[c]isoquinolin-2-yl)-N-(5-fluoropyrimidin-2-yl) acetamide]
–	–	270	< 1000	O=C(CN1C(=O)c2ccc(Br)cc2[C@]2(C(F)(F)F)C[C@H]12)Nc1ncc(F)cn1 (single isomer, unassigned) [compound 2, 2-[trans-6-bromo-3-oxo-7b-(trifluoromethyl)-1,1a-dihydrocyclopropa[c]isoquinolin-2-yl]-N-(5-fluoropyrimidin-2-yl) acetamide]
–	–	9500	1000 to 10000	O=C(CN1C(=O)c2ccc(Br)cc2[C@]2(C(F)(F)F)C[C@H]12)Nc1ncc(F)cn1 (single isomer, unassigned) [compound 3, 2-[trans-6-bromo-3-oxo-7b-(trifluoromethyl)-1,1a-dihydrocyclopropa[c]isoquinolin-2-yl]-N-(5-fluoropyrimidin-2-yl) acetamide]
